Source: US20070148124A1, “Cellulose and acrylic based polymers and the use thereof for the treatment of infectious diseases” (priority 2004, published 2007)
Read-outs that look alike come from different tables or passages of the source.

Experiments:
[1] = tested on: MAGI-R5 or HeLa CD4 LTR β-gal cells
[2] = tested on: HIV-1SKI; experiment: CD4-dependent HIV transmission inhibition assay (cell-associated virus, GHOST cells); type: cell-based
[3] = in vitro; conditions: human
[4] = tested on: HIV-1JR-CSF; experiment: CD4-dependent HIV transmission inhibition assay (cell-associated virus, GHOST cells); type: cell-based
[5] = in vitro; conditions: human; remark: listed apart in the source
[6] = tested on: HIV-1BaL; experiment: Virus attachment assay; type: cell-based; conditions: Assay Virus HIV-1BaL
[7] = tested on: HIV-1IIIB; experiment: microbe, parasite or virus in culture; type: cell-based
[8] = in vitro; conditions: human; remark: listed apart in the source
[9] = tested on: dual tropic (BR/92/014) strain of HIV-1; experiment: HIV-1 infection and replication in PBMCs, RT activity; type: cell-based; conditions: seven days, dual tropic virus
[10] = tested on: CCR5 tropic (JRCSF) strain of HIV-1; experiment: as above; type: cell-based; conditions: seven days, CCR5 virus
[11] = tested on: CXCR4 tropic (CMU06) strain of HIV-1; experiment: as above; type: cell-based; conditions: seven days, CXCR4 virus
[12] = tested on: GHOST cells
[13] = tested on: HeLa CD4 LTR β-gal cells
[14] = cited from earlier work
[15] = Human immunodeficiency virus 1, CXCR4 Virus HIV-1SKI, cell-associated
[16] = Human immunodeficiency virus 1, Assay Virus HIV-1JR-CSF
[17] = CXCR4 Virus HIV-1SKI, cell-associated

With `c1cc(CN2CCCNCCNCCCNCC2)ccc1CN1CCCNCCNCCCNCC1` [AMD 3100] the CC50 ([1]; human) was greater than 10 µM, the IC50 ([2]; Human immunodeficiency virus 1, Pre-incubation pH: Standard Assay) was 10 nM and the IC50 ([2]; Human immunodeficiency virus 1, pH 4, Pre-incubation pH 4.0) was 1 nM. It also gave an IC50 ([2]; Human immunodeficiency virus 1, pH 5.85, Pre-incubation pH 5.85) of 6 nM, an IC50 ([2]; Human immunodeficiency virus 1, pH 6.5, Pre-incubation pH 6.5) of 80 nM and an IC50 [2, 15] of 5 nM. For the same compound, the IC90 [2, 15] was 60 nM, the CC50 [3] was greater than 10 µM and the IC50 [4, 16] was greater than 10000 nM. For the same compound, the IC90 [4, 16] was greater than 10000 nM, the CC50 [5] was greater than 10 µM and the IC50 ([6]; Human immunodeficiency virus 1) was 3.79 µM. The IC90 ([6]; Human immunodeficiency virus 1) was greater than 10000 nM, the IC50 ([7]; Human immunodeficiency virus 1) was 1 nM and the IC90 ([7]; Human immunodeficiency virus 1) was 8 nM. The CC50 at 4 h [8] was greater than 10 µM, the CC50 at 4 h ([8]; pH 4) was 4.03 µM and the CC50 at 4 h ([8]; pH 5.85) was greater than 10 µM. The CC50 at 4 h ([8]; pH 6.5) was greater than 10 µM.
Work on `Cc1cn([C@H]2C[C@H](N=[N+]=[N-])[C@@H](CO)O2)c(=O)[nH]c1=O` [AZT] yielded an IC50 [9] of 0.27 nM, an IC50 [10] of 1.48 nM and an IC50 [11] of less than 0.1 nM.
`Cc1ccc(-c2ccc3c(c2)C=C(C(=O)Nc2ccc(C[N+](C)(C)C4CCOCC4)cc2)CCC3)cc1` [TAK 779] showed a CC50 [1] greater than 0.2 µM, an IC50 [2, 17] greater than 10 nM and an IC90 [2, 17] greater than 10 nM. The IC50 ([4]; Assay Virus HIV-1JR-CSF) was 0.002 nM, the IC90 ([4]; Assay Virus HIV-1JR-CSF) was 0.55 nM and the IC50 [6] was less than 2e-06 µM. It also gave an IC90 [6] of 0.04 nM, a CC50 [12] greater than 10 nM and an IC50 ([7]; Assay Virus HIV-1IIIB, read-out: IC50) greater than 200 nM. For the same compound, the IC90 ([7]; Assay Virus HIV-1IIIB, read-out: IC90) was greater than 200 nM and the CC50 [13] was greater than 200 nM.
For D-mallic acid, L-mallic acid, the “pKa Values (first value)” value ([14]; room temperature) is listed as 3.4 and the “pKa Values (second value)” value ([14]; room temperature) is listed as 5.2.
Compound “hydroxypropyl methylcellulose trimellitate [HPMCT]” has a CC50 ([12]; pH 4) of 0.38%, a CC50 ([12]; pH 5.85) of 0.38% and a CC50 ([12]; pH 6.5) of 0.39%.
For phthalate, the “pKa of the second (remaining dissociable) carboxylic acid group” value ([14]; moiety on the cellulose backbone) is listed as 5.28.
